Experiments:
[1] = test system: T1, HDAC (Mouse Liver Extract); assay: HDAC inhibition assay using Boc-Lys(Ac)-AMC substrate, mouse liver enzyme; format: biochemical;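 on IC50: IC50 for inhibition of HDAC activity in mouse liver extract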
T1 construct: Mouse liver enzyme (10 mg/ml) was diluted 1:6 with HDAC buffer

HCT 116 (colon) cells = assay: Anti-cancer screen, growth inhibition (MTT); format: cell-based; conditions: Homo sapiens, HCT-116 cells, 48 hours of incubation
In short: (§1)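 MTT added for 3 h at 37° C, formazan dissolved in DMSO and A570 read. A T0 plate was measured at compound addition.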

U251 (glioma) cells = assay: Anti-cancer screen, growth inhibition (MTT); format: cell-based; conditions: Homo sapiens, U-251 cells, 48 hours of incubation
In short: as §1

NCI-H460 (lung) cells = assay: Anti-cancer screen, growth inhibition (MTT); format: cell-based; conditions: Homo sapiens, 48 hours of incubation
In short: as §1

Row | Compound | HDAC Inhibition % (1 μM) [1] | HDAC Inhibition % (10 μM) [1] | GI50 (HCT 116 (colon) cells) | GI50 (U251 (glioma) cells) | GI50 (NCI-H460 (lung) cells) | IC50 [1]
1 | Nc1ccc(-c2ccccc2)cc1NC(=O)c1ccc(/C=C(/C(=O)NC2CC2)c2ccc(F)cc2)cc1 [Example 132] | 23.5% | 25.3% | > 100 µM | > 100 µM | > 100 µM | 
2 | Nc1ccccc1NC(=O)c1ccc(/C=C(/C(=O)N2CCOCC2)c2ccc(F)cc2)cc1 [Example 136, N-(2-Aminophenyl)-4-[2-(4-fluorophenyl)-3-morpholin-4-yl-3-oxoprop-1-en-1-yl]benzamide] | 36.1% | 67.9% | 40 µM | 21 µM | 80 µM | 
3 | O=C(/C=C/c1ccc(CNC(=O)c2ccc(/C=C(/C(=O)NC3CC3)c3ccc4c(c3)OCO4)cc2)cc1)NO [Example 147, 4-(3-(Cyclopropylamino)-2-[benzodioxol-5-yl]-3-oxoprop-1-en-1-yl)-N-(4-((E)-3-(hydroxyamino)-3-oxoprop-1-en-1-yl)benzyl)benzamide] | 94.6% | 100.0% | 20 µM | 19 µM | 95 µM | 
4 | O=C(NC1CC1)/C(=C/c1ccc(C(=O)NCc2ccc(C(=O)NO)cc2)cc1)c1ccc(F)cc1 [Example 152, 4-(3-(Cyclopropylamino)-2-(4-fluorophenyl)-3-oxoprop-1-en-1-yl)-N-(4-(hydroxycarbamoyl)benzyl)benzamide] | 88.7% | 98.0% | 30 µM | 22 µM | 25 µM | 
5 | COc1ccc(/C(=C\c2ccc(C(=O)NCc3ccc(C(=O)NO)cc3)cc2)C(=O)NC2CC2)cc1 [Example 154, 4-(3-(Cyclopropylamino)-2-(4-methoxyphenyl)-3-oxoprop-1-en-1-yl)-N-(4-(hydroxycarbamoyl)benzyl)benzamide] | 87.2% | 97.5% | 27 µM | 20 µM | 33 µM | 
6 | O=C(NC1CC1)/C(=C/c1ccc(C(=O)NCc2ccc(C(=O)NO)cc2)cc1)c1ccc(F)cc1Cl [Example 155, 4-(3-(Cyclopropylamino)-2-(2-chloro-4-fluorophenyl)-3-oxoprop-1-en-1-yl)-N-(4-(hydroxycarbamoyl)benzyl)benzamide] | 88.8% | 99.3% | 30 µM | 26 µM | 16 µM | 
7 | O=C(NC1CC1)/C(=C/c1ccc(C(=O)NCc2ccc(C(=O)NO)cc2)cc1)c1cccc(F)c1 [Example 156, 4-(3-(Cyclopropylamino)-2-(3-fluorophenyl)-3-oxoprop-1-en-1-yl)-N-(4-(hydroxycarbamoyl)benzyl)benzamide] | 88.4% | 98.1% | 26 µM | 26 µM | 26 µM | 
8 | O=C(NC1CC1)/C(=C/c1ccc(C(=O)NCc2ccc(C(=O)NO)cc2)cc1)c1ccc2c(c1)OCO2 [Example 157, 4-(3-(Cyclopropylamino)-2-[benzodioxol-5-yl]-3-oxoprop-1-en-1-yl)-N-(4-(hydroxycarbamoyl)benzyl)benzamide] | 82.2% | 96.6% | 19 µM | 60 µM | 18 µM | 
9 | O=C(NC1CC1)/C(=C/c1ccc(C(=O)NCc2ccc(C(=O)NO)cc2)cc1)c1ccc(C(F)(F)F)cc1 [Example 158, 4-(3-(Cyclopropylamino)-2-(4-trifluoromethylphenyl)-3-oxoprop-1-en-1-yl)-N-(4-(hydroxycarbamoyl)benzyl)benzamide] | 88.7% | 98.0% | 30 µM | 22 µM | 25 µM | 
10 | Cc1ccc(/C(=C\c2ccc(C(=O)NCCCCCC(=O)NO)cc2)C(=O)NC2CC2)cc1 [Example 162, 4-(3-(Cyclopropylamino)-2-(4-methylphenyl)-3-oxoprop-1-en-1-yl)-N-(6-(hydroxyamino)-6-oxohexyl)benzamide] | 86.1% | 95.7% | 19 µM | 2 µM | 46 µM | 
11 | O=C(CCCCCNC(=O)c1ccc(/C=C(/C(=O)NC2CC2)c2ccccc2F)cc1)NO [Example 163, 4-(3-(Cyclopropylamino)-2-(2-fluorophenyl)-3-oxoprop-1-en-1-yl)-N-(6-(hydroxyamino)-6-oxohexyl)benzamide] | 81.7% | 97.7% | 32 µM | 41 µM | 10 µM | 

These reach a lower GI50 (HCT 116 (colon) cells). Values come first.

Row | HDAC Inhibition % (1 μM) [1] | HDAC Inhibition % (10 μM) [1] | GI50 (HCT 116 (colon) cells) | GI50 (U251 (glioma) cells) | GI50 (NCI-H460 (lung) cells) | IC50 [1] | Compound
12 | 34.7% | 56.0% | 5.8 µM | 16 µM | 9 µM |  | Nc1ccccc1NC(=O)c1ccc(/C=C(/C(=O)NC2CC2)c2cc(F)ccc2F)cc1 [Example 130, N-(2-Aminophenyl)-4-(2-(2,5-difluorophenyl)-3-(cyclopropylamino)-3-oxoprop-1-en-1-yl)benzamide]
13 | 28.6% | 57.4% | 4 µM | 19 µM | 18 µM |  | CC(C)NC(=O)/C(=C/c1ccc(C(=O)Nc2ccccc2N)cc1)c1ccc(F)cc1 [Example 131, N-(2-Aminophenyl)-4-(2-(4-fluorophenyl)-3-(isopropylamino)-3-oxoprop-1-en-1-yl)benzamide]
14 | 39.6% | 56.7% | 2.8 µM | 12 µM | 6.6 µM |  | Cc1ccccc1/C(=C\c1ccc(C(=O)Nc2ccccc2N)cc1)C(=O)NC1CC1 [Example 133, N-(2-Aminophenyl)-4-(3-(cyclopropylamino)-2-(2-methylphenyl)-3-oxoprop-1-en-1-yl)benzamide]
15 | 38.2% | 63.3% | 6 µM | 7.5 µM | 12 µM |  | CNC(=O)/C(=C/c1ccc(C(=O)Nc2ccccc2N)cc1)c1ccc(F)cc1 [Example 134, N-(2-Aminophenyl)-4-(3-(methylamino)-2-(4-fluorophenyl)-3-oxoprop-1-en-1-yl)benzamide]
16 | 8.6% | 16.6% | 6.8 µM | 9.8 µM | 76 µM |  | Nc1ccccc1NC(=O)c1ccc(/C=C(\C(=O)NC2CC2)c2ccc(F)cc2)cc1 [Example 135, (Z)—N-(2-Aminophenyl)-4-(2-(4-fluorophenyl)-3-(cyclopropylamino)-3-oxoprop-1-en-1-yl)benzamide]
17 | 36.3% | 62.3% | 5.5 µM | 8 µM | 10 µM |  | Nc1ccccc1NC(=O)c1ccc(/C=C(/CNC2CC2)c2ccc(F)cc2)cc1 [Example 144, N-(2-Aminophenyl)-4-(3-(cyclopropylamino)-2-(4-fluorophenyl)prop-1-en-1-yl)benzamide]
18 | 86.9% | 97.8% | 2 µM | 0.08 µM | 0.1 µM | 0.022 µM | Cc1ccc(/C(=C\c2ccc(C(=O)NCc3ccc(C(=O)NO)cc3)cc2)C(=O)NC2CC2)cc1 [Example 148, 4-(3-(Cyclopropylamino)-2-(4-methylphenyl)-3-oxoprop-1-en-1-yl)-N-(4-(hydroxycarbamoyl)benzyl)benzamide]
19 | 61.7% | 88.0% | 12 µM | 12 µM | 52 µM |  | O=C(NC1CC1)/C(=C/c1ccc(C(=O)NCc2ccc(C(=O)NO)cc2)cc1)c1ccccc1 [Example 149, 4-(3-(Cyclopropylamino)-2-phenyl-3-oxoprop-1-en-1-yl)-N-(4-(hydroxycarbamoyl)benzyl)benzamide]
20 | 87.5% | 97.1% | 10.2 µM | 21 µM | 19 µM |  | O=C(NC1CC1)/C(=C/c1ccc(C(=O)NCc2ccc(C(=O)NO)cc2)cc1)c1cccc(Cl)c1 [Example 153, 4-(3-(Cyclopropylamino)-2-(3-chlorophenyl)-3-oxoprop-1-en-1-yl)-N-(4-(hydroxycarbamoyl)benzyl)benzamide]
21 | 89.3% | 97.0% | 12 µM | 11 µM | 20 µM |  | O=C(NC1CC1)/C(=C/c1ccc(C(=O)NCc2ccc(C(=O)NO)cc2)cc1)c1ccc(F)c(F)c1 [Example 159, 4-(3-(Cyclopropylamino)-2-(3,4-difluorophenyl)-3-oxoprop-1-en-1-yl)-N-(4-(hydroxycarbamoyl)benzyl)benzamide]
22 | 87.8% | 97.5% | 8.2 µM | 3.2 µM | 5.3 µM | 0.006 µM | O=C(CCCCCNC(=O)c1ccc(/C=C(/C(=O)NC2CC2)c2ccccc2)cc1)NO [Example 161]
23 | 91.9% | 100.0% | 15 µM | 30 µM | 28 µM |  | O=C(CCCCCNC(=O)c1ccc(/C=C(/C(=O)NC2CC2)c2cccc(F)c2)cc1)NO [Example 164, 4-(3-(Cyclopropylamino)-2-(3-fluorophenyl)-3-oxoprop-1-en-1-yl)-N-(6-(hydroxyamino)-6-oxohexyl)benzamide]
24 | 91.5% | 96.8% | 5.6 µM | 11 µM | 15 µM |  | O=C(CCCCCCC(=O)Nc1ccc(/C=C(/C(=O)NC2CC2)c2ccc(F)cc2)cc1)NO [Example 165, N-(4-(3-(Cyclopropylamino)-2-(4-fluorophenyl)-3-oxoprop-1-en-1-yl)phenyl)-N′-hydroxyoctanediamide]
